pIC50: −log10 of the molar value. Like-named read-outs stand apart in the source and are kept apart here.
Experiments:
Assay type in all cases: cell-based
[1] = test system: SARS-COV-2 (a prototype having D614G mutation)
[2] = test system: SARS-COV-2 Omicron mutant BA.1 strain
[3] = test system: SARS-COV-2 Omicron mutant BA.2 strain
[4] = test system: SARS-COV-2 (a prototype having D614G mutation); remark: listed apart in the source

For `CC(C)(C)OC(=O)NCCCCCCC(C)(C(=O)O)c1c[nH]c2ccccc12` (centres unmarked) [Compound #13], the pIC50 [1] was 5.96.

`COc1cc(COc2ccc3[nH]cc(CC(=O)O)c3c2)cc(OC)c1` [Compound #35] showed a pIC50 [1] of 4.81.

`CC(C)C(=O)OC[C@H]1O[C@@H](n2ccc(NO)nc2=O)[C@H](O)[C@@H]1O` [Molnupiravir] gave a pIC50 [2] of 5.40, a pIC50 [3] of 5.55 and a pIC50 [4] of 5.38.

Source: US20250387369A1 (priority 2022, published 2025)
